Results on three molecules are retold here after patent publication US11420910B2, “Methods for low temperature fluorine-18 radiolabeling of biomolecules” (KATHOLIEKE UNIVERSITEIT LEUVEN, priority 2014, dated 2022).

Where “and” joins values, the source holds several entries; their conditions need not be identical. Equal values may be shown once. Entries after “also recorded” stand apart in the source; their conditions may differ.

A short description of data set [1]: Stability test on the semi-automated [Al18F]-L3 batch at room temperature. Type of data set: physicochemical. The settings on record: incubation at room temperature for 2 hours. The method, then: To assess the efficiency of the labeling agent in a more realistic setting, the process for radiosynthesis and purification of [Al^18F]-L3 was performed semi-automatically. [^18F]fluoride was produced and trapped on a SepPak™ Light Accel plus QMA anion as described previously. The [^18F]F^− was eluted from the cartridge with an aqueous solution of sodium chloride 0.9% (0.2 mL) and added to 22.5 μl of 20 mM aluminum chloride (AlCl3) in sodium acetate buffer (0.1 M, pH 4). The solution was incubated at RT for 10 min to form {Al^18F}^2+. A solution of H3L3 (0.5 mL, 1.5 mM) was added and the reactor was heated at 40° C. for 12 min. After dilution with water (0.5 mL), the crude reaction mixture was injected onto a semi-preparative HPLC column (XBridge C18, 5 μm, 4.6 mm×150 mm, Waters) eluted with EtOH: sodium acetate 0.05M pH 5.5, 8:92 (v/v) at a flow rate of 1 mL/min. UV detection of the eluate was performed at 254 nm. Identification of the [Al^18F]-L3 complex was done by radio-LC-HRMS (Acquity UPLC BEH C18, 1.7 μm, 2.1 mm×150 mm, Waters. 0.6 mL/min A: H2O B: ACN, 0-2 min 5% B, 2 to 8 min 5% B to 95% B, 8-10 min 95% B, 10 to 12 min 95% B to 5% B).
H3L3 was labeled with {Al^18F}^2+ in a non-optimized yield of 74% (12 min 40° C., pH 4). The batch (4.63 GBq) was produced with a RCP higher than 98% in 35 min starting after elution of fluorine-18. […]

Data set [2] can be described thus: Stability tests of Al18F-complexes in different buffers ranging from pH 2 to 8 (room temperature, iTLC-SG). The class given is physicochemical. The settings on record: for stability at different pH (in words): buffers pH 2 to 8, room temperature, 30 and 60 min; for RCP: after 60 min. On the procedure:
200 μl of the purified Al^18F-L3 solution was added to 1 mL of sodium phosphate buffer (0.1 M, pH 2), sodium phosphate buffer (0.1 M, pH 3), sodium acetate buffer (0.1 M, pH 4), sodium acetate buffer (0.1 M, pH 5), sodium acetate buffer (0.1 M, pH 6), PBS buffer (0.1 M, pH 7) or Tris-HCl buffer (0.1 M, pH 8). These mixtures were incubated at room temperature and analyzed by iTLC-SG at 30 and 60 min after the start of the incubation.
200 μl of the purified Al^18F-L26 solution was added to 1 mL of sodium phosphate buffer (0.1 M, pH 2), sodium phosphate buffer (0.1 M, pH 3), sodium acetate buffer (0.1 M, pH 4), sodium acetate buffer (0.1 M, pH 5), sodium acetate buffer (0.1 M, pH 6), PBS buffer (0.1 M, pH 7) or Tris-HCl buffer (0.1 M, pH 8). These mixtures were incubated at room temperature and analyzed by iTLC-SG at 30 and 60 min after the start of the incubation.

The nature of data set [3]: Stability tests of Al18F-complexes in PBS (0.1 M, pH 7) at 37° C., Example 26. To be noted: PBS 0.1 M pH 7, 37° C. Type of data set: physicochemical. On the procedure:
(§1) 400 μl of each purified [Al^18F]-complex solution was added to 1 mL of PBS and/or 1 mL of rat serum. […] Finally the supernatant was analysed using iTLC-SG.

Data set [4] in a line: Stability tests of Al18F-complexes in rat serum at 37° C., Example 26. Type of data set: in vitro ADME. On the procedure:
as §1

Data set [5] can be described thus: Biodistribution of Al18F-complexes and {Al18F}2+ in healthy male NMRI mice. The settings on record: for uptake in blood / uptake in bone / uptake in intestines / uptake in kidneys / uptake in liver / uptake in urinary bladder: NMRI mice, tail vein; for route of clearance (in words) / in vivo stability judged from bone uptake (in words): mice; for in vivo stability judged from bone uptake (in words): biodistribution. The class given is in vivo. The method, then: (§2) Quantification of radioactivity during biodistribution studies was performed using an automated gamma counter equipped with a 3-inch NaI(TI) well crystal coupled to a multichannel analyzer, mounted in a sample changer (Perkin Elmer 1480 Wizard 3q). Counts were corrected for background radiation, physical decay and counter dead time.
(§3) The biodistribution of the [Al^18F]-L3 complex and {Al^18F}^2+ was determined in healthy male Naval Medical Research Institute (NMRI) mice (body weight: 30-40 g) at 10 and 60 min post injection (p.i.) (n=4/time point). Mice were injected with the [Al^18F]-L3 complex (about 1 MBq) or {Al^18F}^2+ (5.55 MBq) via a tail vein under anesthesia (2.5% isoflurane in O2 at 1 L/min flow rate) and sacrificed by decapitation at above specified time points. Blood and major organs were collected in tared tubes and weighed. The radioactivity in blood, organs and other body parts was counted using an automated γ-counter. For the calculation of total radioactivity in blood, bone and muscle, masses were assumed to be, respectively, 7, 12 and 40% of the total body mass.^20, 21
Quantification of radioactivity during biodistribution studies was performed using an automated gamma counter equipped with a 3-inch Nai(TI) well crystal coupled to a multichannel analyzer, mounted in a sample changer (Perkin Elmer 1480 Wizard 3q). Counts were corrected for background radiation, physical decay and counter dead time.
as §3, with “[Al^18F]-L26” for “[Al^18F]-L3”, “(n=3/time point for 10 min p.i. and n=4/time point for 60 min p.i.).” for “(n=4/time point).”, “mass.^20,21” for “mass.^20, 21”

Data set [6] in a line: Stability tests in PBS (0.1 M, pH 7.4) at 37° C., Examples 29 and 33. Type of data set: physicochemical. The settings on record: for % intact tracer: PBS 0.1M pH 7.4, 37° C.
Description: (§4) These mixtures were incubated at 37° C. and analysed by iTLC-SG at 10, 30, 60, 120, 180 and 240 min after the start of the incubation (N=3). Serum samples were denatured by addition of 50 μl of the serum solution to 50 μl of acetonitrile. The mixture was stirred and centrifuged (1300 g, 3 min). Finally the supernatant was analysed using iTLC-SG.
A short description of data set [7]: Stability tests in rat serum at 37° C., Examples 29 and 33.
Description: as §4
A further data set has as its target T1, PSMA (Mus musculus, UniProt O35409).
T1 construct: organs with reported high expression of PSMA such as kidney; from tissue; host or cells: living mice; kidney, spleen and other organs counted ex vivo
Description: Biodistribution of PSMA tracers in mice with or without coadministration of 2-PMPA. The class given is in vivo. The method, then:
The compounds ^68Ga-HBED-CC-PSMA, Al^18F-L6-PSMA, Al^18F-L27-PSMA or Al^18F-NODA-MPAA-PSMA were injected via the tail vain (1-2 MBq) with or without coadministration of 2 mg/kg 2-PMPA. At 10 min or 60 min p.i. (N=4), the animals were sacrificed. Blood and major organs were collected in tarred tubes and weighed. The radioactivity was measured using an automated γ-counter and calculated as % ID and % ID/g.
as §2

T1 sequence (O35409 whole entry): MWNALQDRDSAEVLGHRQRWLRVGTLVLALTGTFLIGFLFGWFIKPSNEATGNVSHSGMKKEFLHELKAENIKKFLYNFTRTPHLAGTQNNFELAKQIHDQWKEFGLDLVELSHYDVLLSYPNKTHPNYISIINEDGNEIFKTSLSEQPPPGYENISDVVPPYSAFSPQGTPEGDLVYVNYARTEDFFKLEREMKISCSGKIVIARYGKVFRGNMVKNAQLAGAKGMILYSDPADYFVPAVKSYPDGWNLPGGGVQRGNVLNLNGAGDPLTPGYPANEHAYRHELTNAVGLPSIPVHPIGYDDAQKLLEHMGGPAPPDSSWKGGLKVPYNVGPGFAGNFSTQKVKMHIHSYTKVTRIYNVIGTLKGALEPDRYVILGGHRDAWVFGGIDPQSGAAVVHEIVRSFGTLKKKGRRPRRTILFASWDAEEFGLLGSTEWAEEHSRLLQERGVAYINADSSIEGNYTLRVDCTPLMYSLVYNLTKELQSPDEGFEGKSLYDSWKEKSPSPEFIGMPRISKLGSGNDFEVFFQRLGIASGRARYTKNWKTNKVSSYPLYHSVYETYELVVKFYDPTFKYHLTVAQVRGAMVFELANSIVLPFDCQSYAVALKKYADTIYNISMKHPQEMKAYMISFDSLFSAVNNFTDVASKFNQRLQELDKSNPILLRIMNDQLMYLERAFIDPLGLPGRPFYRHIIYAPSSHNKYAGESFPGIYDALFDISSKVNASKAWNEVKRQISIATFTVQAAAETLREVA

`O=C1CN(Cc2ccccc2)CCN2CC(=O)[O][Al-]([18F])([O]1)[O]c1ccccc1C2` (centres unmarked) [Al^18F-L3]: the “[Al18F]-L3 still intact” value in data set [1] was “more than 95%”. Also, in data set [2], the “stability at different pH (in words)” value was “not stable at pH 2, pH 3 and pH 4; also recorded: stable for at least 60 min in the pH range from 5 to 8”. In data set [2] (sodium acetate buffer 0.1 M pH 4, room temperature), the RCP turned out to be 75%. This molecule also had an RCP in data set [2] (sodium phosphate buffer 0.1 M pH 2, room temperature) of 58%. For the same molecule, in data set [2] (sodium phosphate buffer 0.1 M pH 3, room temperature), the RCP is listed as 68%. Further, the “stability in PBS (in words)” value in data set [3] is “comparable to that of Al^18F-NODA-benzyl up to 60 minutes; also recorded: stability comparable to that of the previously reported Al^18F-NODA”. In data set [3] (120 min), the RCP was 80%. In data set [3] (240 min), the RCP came to 70%. For the same molecule, in data set [4], the “stability in rat serum (in words)” value is “good stability in rat serum; also recorded: stability comparable to that of the previously reported Al^18F-NODA”. Further, the RCP in data set [4] (240 min) is on record as 66%. In data set [5] (10 min p.i.), this molecule gave an uptake in blood of 1.1 % ID, an uptake in bone of 1.6 % ID, an uptake in intestines of 25.17 % ID and an uptake in kidneys of 2.2 % ID. In data set [5] (10 min p.i.), the uptake in liver is reported as 47.83 % ID and the “uptake in urinary bladder” value amounted to 13.2 % ID. Further, in data set [5] (60 min p.i.), the uptake in blood worked out at 0.3 % ID, the uptake in bone is given as 2.5 % ID, the uptake in intestines is 59.48 % ID and the uptake in kidneys is 1.0 % ID. Also, in data set [5] (60 min p.i.), the uptake in liver came out at 13.53 % ID, the “uptake in urinary bladder” value is on record as 17.8 % ID and the “route of clearance (in words)” value is “hepatobiliary clearance”. Besides, the “in vivo stability judged from bone uptake (in words)” value (from here on “in vivo stability judged”) in data set [5] is “high stability”.

Regarding `O=C1CN2CC(=O)[O][Al-]([18F])([O]1)[O]C(=O)CN(Cc1ccccc1)[C@@H]1CCCC[C@H]12` (racemic) [Al^18F-L26], the “stability at different pH (in words)” value in data set [2] is “stable for at least 60 min in the pH range from 2 to 8”. Further, the “% intact tracer” value in data set [6] (10 min) is listed as 99.1%; in data set [6] (30 min), 98.0%; in data set [6] (1 h) it was 97.8%; in data set [6] (2 h), 91.0%; in data set [6] (3 h), 95.3%; in data set [6] (4 h) it was 87.3%. In addition, the “% intact tracer” value in data set [7] (10 min) was 97.2%; in data set [7] (30 min), 99.0%; in data set [7] (1 h), 98±2.3% and 97.3%; in data set [7] (2 h), 86.7%; in data set [7] (3 h) it was 91.6%; in data set [7] (4 h), 91±2.4% and 91.2%. In addition, the “stability in PBS (in words)” value in data set [6] (PBS, 37° C.) was “excellent stability; also recorded: stability comparable to that of the previously reported Al^18F-NODA”. Besides, the uptake in blood in data set [5] (10 min p.i.) is 2.0 % ID and 1.9 % ID; in data set [5] (60 min p.i.), 0.1 % ID. Also, the uptake in bone in data set [5] (10 min p.i.) worked out at 1.6 % ID; in data set [5] (60 min p.i.), 1.9 % ID. The figures for the uptake in intestines in data set [5] (10 min p.i.) and in data set [5] (60 min p.i.) were 19.6 % ID and 62.7 % ID, respectively. Also, the figures for the uptake in kidneys in data set [5] (10 min p.i.) and in data set [5] (60 min p.i.) were 4.6 % ID and 0.2 % ID, respectively. The values for the uptake in liver in data set [5] (10 min p.i.) and in data set [5] (60 min p.i.) were 49.5 % ID and 8.8 % ID, respectively. Moreover, the “uptake in urinary bladder” value was found to be 14.3 % ID in data set [5] (10 min p.i.) and 21.5 % ID in data set [5] (60 min p.i.). The “route of clearance (in words)” value in data set [5] (60 min p.i.) is “hepatobiliary clearance”. Besides, the “in vivo stability judged” value in data set [5] is reported as “high stability”. Also, the “stability in rat serum (in words)” value in data set [7] is given as “excellent stability; also recorded: stability comparable to that of the previously reported Al^18F-NODA”.

Turning to `O=C([O-])CN(CCN(CC(=O)[O-])Cc1cc(CCC(=O)NCCCCCC(=O)NCCCC[C@H](NC(=O)N[C@@H](CCC(=O)O)C(=O)O)C(=O)O)ccc1[O-])Cc1cc(CCC(=O)O)ccc1[O-].[68Ga+3].[OH3+]` [^68Ga-HBED-CC-PSMA], on PSMA, the “affinity for the PSMA receptor indicated by spleen and kidney uptake (in words)” value is given as “high affinity for the PSMA receptor”; the “in vivo stability judged” value was “high in vivo stability”. Further, the “kidney and spleen retention when 2-PMPA was coinjected (in words)” value at PSMA (60 min p.i., 2 mg/kg 2-PMPA) is given as “nearly completely blocked”. Also, on PSMA (60 min p.i., without 2-PMPA), the retention in kidney amounted to 269.90±47.23 % ID/g and the retention in spleen was determined as 2.72±0.42 % ID/g. In addition, the bone uptake at PSMA (tail vein, time point not stated) was 0.39±0.09 % ID/g.
